Test results as given in ChEMBL document CHEMBL4680157, “Design, synthesis and biological evaluation of novel TRβ selective agonists sustained by ADME-toxicity analysis” (Eur J Med Chem, 2020).

Key:
[1] = target: HDAC9 (Homo sapiens, UniProt Q9UKV0); test: Inhibition of HDAC9 (unknown origin) at 10 uM relative to control
[2] = target: CYP2D6 (Homo sapiens, UniProt P10635); test: Inhibition of CYP2D6 (unknown origin) at 10 uM relative to control; type: ADME
[3] = Cytotoxicity against human hTERT cells assessed as cell growth inhibition at 10 uM after 24 hrs relative to control; type: cell-based, hTERT-BJ
[4] = Cytotoxicity against human HEK293 cells assessed as cell growth inhibition at 10 uM after 48 hrs relative to control; type: cell-based
[5] = Cytotoxicity against human MCF7 cells assessed as cell growth inhibition at 10 uM after 24 hrs relative to control; type: cell-based
[6] = target: Aurora B (Homo sapiens, UniProt Q96GD4); test: Inhibition of Aurora B (unknown origin) at 10 uM relative to control
[7] = target: CYP2C19 (Homo sapiens, UniProt P33261); test: Inhibition of CYP2C19 (unknown origin) at 10 uM relative to control; type: ADME
Chain of CYP2C19 (P33261 whole entry): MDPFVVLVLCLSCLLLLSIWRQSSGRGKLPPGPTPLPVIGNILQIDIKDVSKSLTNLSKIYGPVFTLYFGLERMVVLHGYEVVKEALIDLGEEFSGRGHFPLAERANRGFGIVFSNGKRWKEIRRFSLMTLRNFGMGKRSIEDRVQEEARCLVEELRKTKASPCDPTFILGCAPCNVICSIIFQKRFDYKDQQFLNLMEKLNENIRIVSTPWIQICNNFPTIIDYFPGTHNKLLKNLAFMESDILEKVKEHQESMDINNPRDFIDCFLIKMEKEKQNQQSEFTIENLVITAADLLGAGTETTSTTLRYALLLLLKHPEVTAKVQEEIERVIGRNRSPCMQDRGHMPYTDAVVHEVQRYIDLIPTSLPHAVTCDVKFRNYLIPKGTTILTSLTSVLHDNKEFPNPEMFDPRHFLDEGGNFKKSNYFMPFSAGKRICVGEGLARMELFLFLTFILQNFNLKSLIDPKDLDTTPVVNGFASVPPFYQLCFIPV

[8] = Cytotoxicity against human HEK293 cells assessed as cell growth inhibition at 10 uM after 24 hrs relative to control; type: cell-based
[9] = Cytotoxicity against human U2OS cells assessed as cell growth inhibition at 10 uM after 48 hrs relative to control; type: cell-based
[10] = target: T1, HDAC6 (Homo sapiens, UniProt Q9UBN7); test: Inhibition of HDAC6 (unknown origin) at 10 uM relative to control
T1 sequence (Q9UBN7 whole entry): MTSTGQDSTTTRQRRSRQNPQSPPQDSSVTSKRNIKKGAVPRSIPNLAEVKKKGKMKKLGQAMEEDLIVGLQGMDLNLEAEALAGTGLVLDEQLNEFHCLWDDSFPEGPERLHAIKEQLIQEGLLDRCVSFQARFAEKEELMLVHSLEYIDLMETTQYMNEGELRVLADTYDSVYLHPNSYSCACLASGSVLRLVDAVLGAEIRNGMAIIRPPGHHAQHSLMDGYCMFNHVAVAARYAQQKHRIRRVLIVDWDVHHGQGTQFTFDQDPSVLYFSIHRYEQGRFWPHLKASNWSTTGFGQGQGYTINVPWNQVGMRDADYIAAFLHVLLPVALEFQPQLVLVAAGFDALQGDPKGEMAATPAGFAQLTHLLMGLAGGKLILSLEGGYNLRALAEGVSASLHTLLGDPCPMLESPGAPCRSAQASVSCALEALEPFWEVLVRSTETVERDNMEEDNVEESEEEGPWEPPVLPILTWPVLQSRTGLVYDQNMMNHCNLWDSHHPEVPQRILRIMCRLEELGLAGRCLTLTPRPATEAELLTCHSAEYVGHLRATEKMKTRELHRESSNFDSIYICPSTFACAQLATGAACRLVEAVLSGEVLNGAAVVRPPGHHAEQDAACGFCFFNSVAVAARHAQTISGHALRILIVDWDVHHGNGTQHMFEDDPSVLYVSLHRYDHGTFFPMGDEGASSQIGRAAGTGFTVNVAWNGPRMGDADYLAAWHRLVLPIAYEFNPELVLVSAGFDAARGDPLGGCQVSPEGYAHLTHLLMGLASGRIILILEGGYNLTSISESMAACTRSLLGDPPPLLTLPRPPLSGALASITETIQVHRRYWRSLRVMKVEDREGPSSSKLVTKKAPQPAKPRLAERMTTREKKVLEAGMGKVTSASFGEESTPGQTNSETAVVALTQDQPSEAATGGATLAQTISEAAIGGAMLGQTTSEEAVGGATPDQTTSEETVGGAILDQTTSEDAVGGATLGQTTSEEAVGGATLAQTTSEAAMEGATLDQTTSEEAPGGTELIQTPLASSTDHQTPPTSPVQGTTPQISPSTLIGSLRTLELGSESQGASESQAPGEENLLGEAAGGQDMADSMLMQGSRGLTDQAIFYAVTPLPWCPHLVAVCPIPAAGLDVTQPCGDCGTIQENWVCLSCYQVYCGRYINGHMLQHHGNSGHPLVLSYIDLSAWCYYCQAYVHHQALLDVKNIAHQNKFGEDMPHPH

[11] = Cytotoxicity against human MCF7 cells assessed as cell growth inhibition at 10 uM after 48 hrs relative to control; type: cell-based
[12] = target: T2, SIRT7 (Homo sapiens, UniProt Q9NRC8); test: Inhibition of SIRT7 (unknown origin) at 10 uM relative to control
T2 sequence (Q9NRC8 whole entry): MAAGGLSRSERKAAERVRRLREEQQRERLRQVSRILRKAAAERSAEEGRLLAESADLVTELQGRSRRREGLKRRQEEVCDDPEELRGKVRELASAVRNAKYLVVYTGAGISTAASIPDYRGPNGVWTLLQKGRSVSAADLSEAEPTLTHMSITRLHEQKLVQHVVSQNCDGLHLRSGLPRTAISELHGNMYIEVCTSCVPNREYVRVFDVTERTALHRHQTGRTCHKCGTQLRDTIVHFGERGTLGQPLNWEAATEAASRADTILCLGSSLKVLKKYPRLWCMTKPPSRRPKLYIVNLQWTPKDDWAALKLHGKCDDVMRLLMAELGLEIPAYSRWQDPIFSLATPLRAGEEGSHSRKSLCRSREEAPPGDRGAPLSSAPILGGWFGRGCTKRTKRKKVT

[13] = target: 3',5'-cyclic-AMP phosphodiesterase 4C (Homo sapiens) (UniProt Q08493); test: Inhibition of PDE4C1 (unknown origin) at 10 uM relative to control
Chain of 3',5'-cyclic-AMP phosphodiesterase 4C (Homo sapiens) (Q08493 whole entry): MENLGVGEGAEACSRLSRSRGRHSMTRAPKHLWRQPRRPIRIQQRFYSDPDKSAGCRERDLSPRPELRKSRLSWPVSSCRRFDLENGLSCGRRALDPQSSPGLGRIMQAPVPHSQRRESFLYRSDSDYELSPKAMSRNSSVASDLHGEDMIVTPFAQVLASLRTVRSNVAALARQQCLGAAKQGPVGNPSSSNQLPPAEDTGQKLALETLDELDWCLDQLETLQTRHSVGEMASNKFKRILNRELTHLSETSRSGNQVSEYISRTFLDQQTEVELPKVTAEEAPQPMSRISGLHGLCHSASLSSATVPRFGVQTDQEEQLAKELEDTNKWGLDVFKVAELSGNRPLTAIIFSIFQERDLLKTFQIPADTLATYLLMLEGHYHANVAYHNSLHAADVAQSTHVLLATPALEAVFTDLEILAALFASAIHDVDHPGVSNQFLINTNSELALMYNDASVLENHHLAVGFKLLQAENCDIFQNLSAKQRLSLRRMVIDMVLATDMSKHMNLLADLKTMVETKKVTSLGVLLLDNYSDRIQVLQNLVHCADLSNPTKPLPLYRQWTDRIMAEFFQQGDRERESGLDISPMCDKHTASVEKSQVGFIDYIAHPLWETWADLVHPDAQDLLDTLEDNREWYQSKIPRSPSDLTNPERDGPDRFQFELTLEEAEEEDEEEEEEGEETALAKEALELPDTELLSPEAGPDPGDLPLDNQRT

[14] = target: CYP3A4 (Homo sapiens, UniProt P08684); test: Inhibition of CYP3A4 (unknown origin) at 10 uM relative to control; type: ADME
[15] = target: HDAC4 (Homo sapiens, UniProt P56524); test: Inhibition of HDAC4 (unknown origin) at 10 uM relative to control
Chain of HDAC4 (P56524 whole entry): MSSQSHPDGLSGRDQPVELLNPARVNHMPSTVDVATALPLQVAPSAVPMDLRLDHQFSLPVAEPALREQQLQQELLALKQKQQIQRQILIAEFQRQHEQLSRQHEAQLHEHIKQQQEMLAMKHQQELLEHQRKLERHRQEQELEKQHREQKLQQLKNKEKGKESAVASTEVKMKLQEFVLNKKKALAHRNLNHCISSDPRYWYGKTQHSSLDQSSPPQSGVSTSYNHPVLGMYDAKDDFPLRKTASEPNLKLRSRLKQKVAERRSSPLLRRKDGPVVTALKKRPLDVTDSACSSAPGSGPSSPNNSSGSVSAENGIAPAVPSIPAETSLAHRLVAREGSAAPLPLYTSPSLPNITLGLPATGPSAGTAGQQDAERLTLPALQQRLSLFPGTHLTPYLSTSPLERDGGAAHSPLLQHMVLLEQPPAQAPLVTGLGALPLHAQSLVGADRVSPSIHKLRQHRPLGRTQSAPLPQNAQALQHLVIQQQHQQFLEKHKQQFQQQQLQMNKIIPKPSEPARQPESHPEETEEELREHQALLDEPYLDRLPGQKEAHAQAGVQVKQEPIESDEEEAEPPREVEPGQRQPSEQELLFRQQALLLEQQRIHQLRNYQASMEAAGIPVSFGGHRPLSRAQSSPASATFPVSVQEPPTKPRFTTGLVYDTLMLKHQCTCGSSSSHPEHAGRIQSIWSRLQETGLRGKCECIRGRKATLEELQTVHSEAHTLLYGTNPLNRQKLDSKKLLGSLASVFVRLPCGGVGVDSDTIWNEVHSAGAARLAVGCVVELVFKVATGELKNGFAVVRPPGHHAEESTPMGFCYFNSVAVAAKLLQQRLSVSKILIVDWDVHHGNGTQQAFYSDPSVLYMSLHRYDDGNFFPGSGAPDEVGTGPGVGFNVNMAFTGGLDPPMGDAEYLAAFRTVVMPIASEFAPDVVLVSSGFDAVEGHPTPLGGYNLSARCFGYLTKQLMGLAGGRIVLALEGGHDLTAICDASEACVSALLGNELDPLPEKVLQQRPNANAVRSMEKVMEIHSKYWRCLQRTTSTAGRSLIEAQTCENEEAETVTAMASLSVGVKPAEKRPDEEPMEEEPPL

[16] = target: hERG (KCNH2) (Homo sapiens, UniProt Q12809); test: Inhibition of human ERG at 10 uM by fluorescence polarization assay relative to control
Chain of hERG (KCNH2) (Q12809 whole entry): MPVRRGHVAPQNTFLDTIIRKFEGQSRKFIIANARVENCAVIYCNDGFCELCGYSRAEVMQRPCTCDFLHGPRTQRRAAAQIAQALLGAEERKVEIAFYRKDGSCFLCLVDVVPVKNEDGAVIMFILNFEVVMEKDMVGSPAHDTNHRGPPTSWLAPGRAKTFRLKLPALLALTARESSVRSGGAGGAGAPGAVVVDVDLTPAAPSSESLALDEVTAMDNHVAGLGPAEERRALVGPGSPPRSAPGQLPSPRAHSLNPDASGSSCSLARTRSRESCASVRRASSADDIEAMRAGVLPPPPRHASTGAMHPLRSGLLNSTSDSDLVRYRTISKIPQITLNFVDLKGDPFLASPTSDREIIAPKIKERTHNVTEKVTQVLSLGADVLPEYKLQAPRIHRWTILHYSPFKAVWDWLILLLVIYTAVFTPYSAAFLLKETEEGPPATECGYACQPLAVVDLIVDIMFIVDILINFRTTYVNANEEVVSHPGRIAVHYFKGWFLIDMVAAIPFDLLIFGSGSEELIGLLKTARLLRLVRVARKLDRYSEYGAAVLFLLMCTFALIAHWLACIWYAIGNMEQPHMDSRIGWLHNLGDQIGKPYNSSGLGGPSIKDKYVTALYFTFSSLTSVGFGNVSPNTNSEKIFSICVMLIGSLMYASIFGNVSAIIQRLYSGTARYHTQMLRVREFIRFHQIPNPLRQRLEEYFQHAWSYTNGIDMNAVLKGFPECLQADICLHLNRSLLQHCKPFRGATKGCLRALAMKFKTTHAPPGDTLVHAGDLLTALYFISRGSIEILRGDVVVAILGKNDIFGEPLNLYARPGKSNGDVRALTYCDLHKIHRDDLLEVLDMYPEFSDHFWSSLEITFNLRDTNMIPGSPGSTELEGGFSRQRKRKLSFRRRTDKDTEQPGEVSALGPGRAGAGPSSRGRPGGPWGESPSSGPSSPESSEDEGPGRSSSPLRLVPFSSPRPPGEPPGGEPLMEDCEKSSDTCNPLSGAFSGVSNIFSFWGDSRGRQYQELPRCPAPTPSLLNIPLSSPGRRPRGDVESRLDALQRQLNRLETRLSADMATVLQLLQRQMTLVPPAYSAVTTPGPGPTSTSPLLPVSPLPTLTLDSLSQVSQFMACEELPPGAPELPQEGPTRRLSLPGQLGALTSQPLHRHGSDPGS

[17] = target: CYP2C9 (Homo sapiens, UniProt P11712); test: Inhibition of CYP2C9 (unknown origin) at 10 uM relative to control; type: ADME
[18] = target: T3, HDAC8 (Homo sapiens, UniProt Q9BY41); test: Inhibition of HDAC8 (unknown origin) at 10 uM relative to control
T3 sequence (Q9BY41 whole entry): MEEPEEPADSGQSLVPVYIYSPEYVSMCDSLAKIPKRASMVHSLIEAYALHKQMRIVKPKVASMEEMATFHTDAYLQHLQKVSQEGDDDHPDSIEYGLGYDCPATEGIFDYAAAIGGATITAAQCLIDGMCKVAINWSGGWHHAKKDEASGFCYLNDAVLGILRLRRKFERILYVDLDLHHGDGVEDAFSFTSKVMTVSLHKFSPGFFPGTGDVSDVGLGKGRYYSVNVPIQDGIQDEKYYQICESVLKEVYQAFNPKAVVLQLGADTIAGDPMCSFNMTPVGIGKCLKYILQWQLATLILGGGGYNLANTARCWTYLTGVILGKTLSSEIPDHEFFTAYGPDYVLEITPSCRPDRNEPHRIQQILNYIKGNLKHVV

Chain of HDAC9 (Q9UKV0 whole entry): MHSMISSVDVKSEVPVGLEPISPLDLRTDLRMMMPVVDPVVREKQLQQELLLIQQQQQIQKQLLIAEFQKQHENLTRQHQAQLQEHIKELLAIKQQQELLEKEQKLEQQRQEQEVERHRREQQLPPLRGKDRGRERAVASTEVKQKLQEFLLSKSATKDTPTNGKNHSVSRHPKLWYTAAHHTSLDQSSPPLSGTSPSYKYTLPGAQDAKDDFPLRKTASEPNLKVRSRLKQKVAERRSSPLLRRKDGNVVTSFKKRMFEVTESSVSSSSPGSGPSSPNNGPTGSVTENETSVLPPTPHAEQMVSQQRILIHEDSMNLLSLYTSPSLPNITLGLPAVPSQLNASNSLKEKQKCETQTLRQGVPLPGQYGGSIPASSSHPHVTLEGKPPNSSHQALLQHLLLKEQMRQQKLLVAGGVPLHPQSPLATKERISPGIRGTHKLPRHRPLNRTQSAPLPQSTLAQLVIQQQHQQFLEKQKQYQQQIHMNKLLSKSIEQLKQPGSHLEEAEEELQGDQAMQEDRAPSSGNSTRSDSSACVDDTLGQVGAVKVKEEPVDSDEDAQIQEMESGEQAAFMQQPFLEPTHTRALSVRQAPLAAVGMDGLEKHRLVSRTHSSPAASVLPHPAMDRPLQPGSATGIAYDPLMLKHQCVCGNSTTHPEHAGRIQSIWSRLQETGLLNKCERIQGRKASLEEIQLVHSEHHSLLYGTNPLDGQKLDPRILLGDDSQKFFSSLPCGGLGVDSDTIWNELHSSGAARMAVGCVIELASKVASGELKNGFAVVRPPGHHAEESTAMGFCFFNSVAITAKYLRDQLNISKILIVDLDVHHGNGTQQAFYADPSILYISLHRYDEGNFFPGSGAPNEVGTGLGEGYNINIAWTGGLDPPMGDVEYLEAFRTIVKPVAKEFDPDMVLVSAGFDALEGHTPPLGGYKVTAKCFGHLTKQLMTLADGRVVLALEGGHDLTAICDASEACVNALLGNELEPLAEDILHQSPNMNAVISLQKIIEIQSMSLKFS
Chain of CYP2D6 (P10635 whole entry): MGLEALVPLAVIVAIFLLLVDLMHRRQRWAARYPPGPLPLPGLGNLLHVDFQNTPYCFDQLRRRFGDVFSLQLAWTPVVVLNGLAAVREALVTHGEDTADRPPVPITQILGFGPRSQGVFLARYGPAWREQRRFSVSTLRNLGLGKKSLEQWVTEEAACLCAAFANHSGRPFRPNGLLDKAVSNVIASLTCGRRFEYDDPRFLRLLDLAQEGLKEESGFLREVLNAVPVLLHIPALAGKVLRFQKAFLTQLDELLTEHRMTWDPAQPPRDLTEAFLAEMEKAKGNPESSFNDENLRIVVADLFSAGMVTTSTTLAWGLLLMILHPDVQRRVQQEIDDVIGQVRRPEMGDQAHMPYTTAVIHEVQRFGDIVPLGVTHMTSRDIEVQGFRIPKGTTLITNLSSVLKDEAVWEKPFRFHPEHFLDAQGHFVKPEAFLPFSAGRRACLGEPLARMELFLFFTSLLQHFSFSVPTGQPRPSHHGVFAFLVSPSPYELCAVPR

inhibition at 10 µM [1] [%] | inhibition at 10 µM [2] [%] | inhibition at 10 µM [6] [%] | inhibition at 10 µM [7] [%] | inhibition at 10 µM [10] [%] | inhibition at 10 µM [12] [%] | inhibition [13] [%] | inhibition at 10 µM [14] [%] | inhibition at 10 µM [15] [%] | inhibition at 10 µM [17] [%] | inhibition at 10 µM [18] [%] | SMILES | inhibition at 24 h, 10 µM [3] [%] | inhibition at 48 h, 10 µM [4] [%] | inhibition at 24 h, 10 µM [5] [%] | inhibition at 24 h, 10 µM [8] [%] | inhibition at 48 h, 10 µM [9] [%] | inhibition at 48 h, 10 µM [11] [%] | inhibition at 10 µM [16] [%]
< 50 | < 50 | < 50 | < 50 | < 50 | < 50 | < 50 | < 50 | < 50 | < 50 | < 50 | CC(=O)Nc1ccc(Cc2c(C)cc(OCC(=O)O)cc2C)cc1C(C)C | < 50 | < 50 | < 50 | < 50 | < 50 | < 50 | < 25
< 50 | < 50 | < 50 | < 50 | < 50 | < 50 | < 50 | < 50 | < 50 | < 50 | < 50 | Cc1cc(OCC(=O)O)cc(C)c1Cc1ccc(O)cc1 | < 50 | < 50 | < 50 | < 50 | < 50 | < 50 | < 25
< 50 | < 50 | < 50 | < 50 | < 50 | < 50 | < 50 | 51 | < 50 | < 50 | < 50 | Cc1cc(OCC(=O)O)cc(C)c1Cc1ccc(N)c(C(C)C)c1 | < 50 | < 50 | < 50 | < 50 | < 50 | < 50 | < 40
